Source: publication PMC11597817, “Modulation of Multispecific Transporters by Uncaria tomentosa Extract and Its Major Phytoconstituents” (Pharmaceutics, 2024)
Like-named read-outs stand apart in the source and are kept apart here.

Experiments:
[1] = molecular target: T1, MDR1 (Homo sapiens, UniProt P08183); assay: Vesicular transport inhibition assay, MDR1 membrane vesicles; assay type: biochemical; conditions: for Igut/IC50 ratio: MDR1, Igut = dose/250 mL, 500 mg dose of UT extract, ICH M12 cut-off 10; for IC50: oxindole alkaloids, substrate NMQ, read-out: IC50 (95% CI of IC50)
T1 construct: The cDNA encoding respective transporters were synthetized and cloned by GenScript; host or cells: HEK293 (lentiviral transduction), membrane vesicles
T1 sequence (P08183 whole entry): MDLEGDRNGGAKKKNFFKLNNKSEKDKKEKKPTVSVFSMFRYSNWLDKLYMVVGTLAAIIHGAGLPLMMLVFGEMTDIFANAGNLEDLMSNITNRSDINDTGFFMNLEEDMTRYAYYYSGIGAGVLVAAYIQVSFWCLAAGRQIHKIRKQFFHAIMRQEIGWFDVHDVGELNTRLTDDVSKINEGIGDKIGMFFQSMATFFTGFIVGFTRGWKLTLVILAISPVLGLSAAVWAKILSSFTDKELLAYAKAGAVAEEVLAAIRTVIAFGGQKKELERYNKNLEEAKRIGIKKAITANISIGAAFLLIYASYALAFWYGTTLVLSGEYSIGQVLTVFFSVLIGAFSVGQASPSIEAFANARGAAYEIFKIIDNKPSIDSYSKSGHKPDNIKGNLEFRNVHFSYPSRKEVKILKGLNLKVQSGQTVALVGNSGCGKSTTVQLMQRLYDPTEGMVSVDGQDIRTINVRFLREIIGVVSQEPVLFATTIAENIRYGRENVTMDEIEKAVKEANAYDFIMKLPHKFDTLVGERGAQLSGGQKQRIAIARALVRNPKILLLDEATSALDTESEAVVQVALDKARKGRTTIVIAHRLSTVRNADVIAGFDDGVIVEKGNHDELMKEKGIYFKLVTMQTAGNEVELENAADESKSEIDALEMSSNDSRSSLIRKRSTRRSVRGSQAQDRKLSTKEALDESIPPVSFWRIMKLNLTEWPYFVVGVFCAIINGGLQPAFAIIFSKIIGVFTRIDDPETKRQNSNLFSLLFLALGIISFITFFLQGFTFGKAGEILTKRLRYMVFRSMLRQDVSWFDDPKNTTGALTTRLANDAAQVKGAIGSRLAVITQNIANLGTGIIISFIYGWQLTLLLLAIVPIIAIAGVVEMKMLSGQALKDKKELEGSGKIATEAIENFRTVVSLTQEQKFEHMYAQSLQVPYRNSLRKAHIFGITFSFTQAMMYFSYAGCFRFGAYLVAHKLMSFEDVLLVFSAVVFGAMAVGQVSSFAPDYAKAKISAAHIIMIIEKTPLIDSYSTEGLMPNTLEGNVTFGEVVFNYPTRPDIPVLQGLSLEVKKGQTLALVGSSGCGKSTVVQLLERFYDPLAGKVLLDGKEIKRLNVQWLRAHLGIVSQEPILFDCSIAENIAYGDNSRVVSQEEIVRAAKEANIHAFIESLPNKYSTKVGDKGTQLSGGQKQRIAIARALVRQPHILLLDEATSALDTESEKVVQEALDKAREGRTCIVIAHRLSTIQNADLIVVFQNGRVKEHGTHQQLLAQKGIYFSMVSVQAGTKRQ
Excerpt: The human embryonic kidney 293 (HEK293) cell line was purchased from Invitrogen/ThermoFisher (Waltham, MA, USA). Madin–Darby canine kidney II (MDCKII) wild type cells were obtained from the European Collection of Authenticated Cell Cultures (ECACC catalog no. 00062107). HEK293 cells overexpressing the human uptake OATP1B1 (NCBI Reference Sequence: NM_006446.4), OATP1B3 (NM_019844), OATP2B1 (NM_007256), OATP1A2 (NM_134431), OAT1-3 (BC033682.1; NM_006672.3; BC022387), OCT1-3 (BC126364.1; NM_003058; NM_021977), OCTN1 (NM_003059.3), NTCP (NM_003049.3), MATE1 (NM_018242.3), MATE2K (NM_001099646.2), ENT4 (NM_001040661.1), SGLT2 (AJ133127.1), ASCT1/2 (NM_003038.5; NM_005628.3), LAT1/2 (NM_003486.6; NM_012244.4), and THTR1/2 (NM_006996; NM_025243) and mock and human efflux BCRP (NM_004827.2), BSEP (NM_003742.2), MDR1 (NM_000927.4), and MRP1-5 (NM_004996; NM_000392.4; BC137347.1; NM_005845.4; NM_005688.2) transporters as well as MDCKII overexpressing human ENT1/2 (NM_001078177; NM_001532.2) and URAT1 (BC053348) transporters were created by lentiviral transduction. The cDNA encoding respective transporters were synthetized and cloned by GenScript (Piscataway, NJ, USA). The production of lentivirus supernatants, the transduction of the cells, cloning, functional characterization, and validation were performed by Charles River Laboratories Hungary Kft. (Budapest, Hungary).
Membrane vesicles were prepared from ABC transporter-overexpressing HEK293 cells by Charles River Laboratories Hungary Kft. as described previously in detail. Vesicles were frozen in liquid nitrogen and stored at −80 °C.
Vesicular transport inhibition assays were performed using a rapid filtration technique. In brief, the appropriate amount of the protein of each membrane vesicle was mixed with either the extract or isopteropodine, mitraphylline, or uncarine D at one concentration or with their half dilution series from 150 µg/mL or from 100 µM, the suitable transporter substrate, and the assay buffer on ice. Reaction mixtures were preincubated for 15 min at 37 °C with shaking at 250 rpm. Following preincubation, 4 mM Mg-ATP or AMP was added and incubated according to Table S3. Vesicular transport was terminated by adding an ice-cold washing buffer, and the reaction mix was transferred to a MSFBN6B10 filter plate (Merck) for filtration. The filter plates were then dried at 40 °C for 4 h, and radiolabeled substrates retained in the vesicles were detected by liquid scintillation counting as described above. For fluorescent substrates, accumulation was measured with a Clariostar^plus microplate reader (BMG Labtech GmbH, Ortenberg, Germany).
The transporter-mediated uptake and ATP-dependent transport were determined by subtracting the activity of the control cell/transporter abundant-membrane in the presence of AMP from the activity of the transporter-overexpressing cell/transporter-abundant membrane in the presence of ATP. The relative transporter-specific accumulation was expressed as the percent of DMSO activity. The results were presented as the mean ± SEM from 3 parallels. More than a 20% reduction in transport activity was considered as inhibition. For the IC50 determination, dose–response curves were fitted using a 4-parameter nonlinear model in GraphPad Prism version 9.0. Confidence intervals (CIs) of 95% were also determined.
Table S3 – Vesicular transport inhibition assay details.
These parameters were set during previous validations. TC: taurocholic acid, E3S: estrone 3 -sulfate,
NMQ: N-methyl-quinidine, E217βG: β-Estradiol 17-(β-D-glucuronide), DHEAS:
Dehydroepiandrosterone sulfate, CDCF: 5(6)-Carboxy-2',7-dichlorofluorescein B.
Parental Transporter Incubation Substrate Substrate µg Incubation
cell time (min) concentration membrane/ temperature

[2] = test system: NIH/3T3; assay: Antiproliferative MTT assay; assay type: cell-based, murine; conditions: 30 μM pure natural product, 72 h
Experimental: For the determination of the antiproliferative properties of the prepared extract and selected alkaloids (isopteropodine, mitraphylline, and uncarine D), an MTT assay was applied on our […] cell panel (see Table S4). […] All were maintained in a minimal essential medium completed with 10% fetal bovine serum, 1% non-essential amino acids, and 1% penicillin–streptomycin at 37 °C in a humidified atmosphere containing 5% CO2. All cell lines were purchased from the European Collection of Cell Cultures (Salisbury, UK), except for SiHa and C33A, which were from the American Tissue Culture Collection, LGC Standards GmbH (Wesel, Germany). Cell culture media and supplements were obtained from Lonza Group Ltd. (Basel, Switzerland). Cells were seeded into 96-well plates (C33A 10,000/well, all others 5000/well); after overnight incubation, the test substances were added and incubated for another 72 h under cell-culturing conditions. Uncaria tomentosa extract and the alkaloids were tested in the 1–90 μg/mL and 1–30 μM ranges, respectively. Finally, 20 μL of 5 mg/mL MTT solution was added to each well and incubated for 4 h; the medium was discarded, and the precipitated formazan crystals were dissolved in DMSO for 60 min with shaking. The absorbance was determined using a microplate reader (SPECTROstar Nano, BMG Labtech GmbH). Two independent experiments were performed with five parallels for each condition. Cisplatin, a clinically used anticancer agent (Ebewe GmbH, Unterach, Austria), was included as a reference compound. Calculations were conducted using the GraphPad Prism 10.0 software (GraphPad Software Inc., San Diego, CA, USA).
Table S4 – Antiproliferative properties of Uncaria tomentosa extract, three natural products (isopteropodine, mitraphylline, and uncarine D) and the
reference agent cisplatin.
Cell line Uncaria tomentosa isopteropodine mitraphylline uncarine D [95% confidence
1: The highest applied concentration was 90 μg/mL and 30 μM for the extract and the pure natural products, respectively.
2: Inhibitions less than 20% compared to the untreated control were regarded as negligible and were not given numerically.

Compound | Igut/IC50 ratio [1] | transporter-mediated substrate accumulation ([1]; in the presence of the alkaloid (100 µM, Figure 4)) | IC50 ([1]; listed as Mitraphylline) [µM] | IC50 [1] [µM] | Cell growth inhibition at the highest concentration (% ± SEM) [2] [%] | inhibitory effect on transporter-specific transport ([1]; 100 µM alkaloid) | Igut/IC50 ratio ([1]; listed as Isopteropodine)
COC(=O)C1=CO[C@@H](C)[C@H]2CN3CC[C@]4(C(=O)Nc5ccccc54)[C@@H]3C[C@H]12 [mitraphylline] | < 10 | below 50% | 28.3 | 28.3 | < 20 |  | 
COC(=O)C1=CO[C@@H](C)[C@@H]2CN3CC[C@@]4(C(=O)Nc5ccccc54)[C@@H]3C[C@H]12 [isopteropodine] | < 10 |  |  | 28.2 | < 20 | significantly inhibited | 0.82
